# Results as given in BindingDB's records for doi:10.1016/j.bmcl.2020.127533 (Glaxosmithkline, 2020).
# Molecular target: Methionine aminopeptidase 2 (Homo sapiens) (UniProt P50579)
# Test: Inhibition of MetAP2 (unknown origin)
# Sequence of Methionine aminopeptidase 2 (Homo sapiens) (P50579 whole entry, looked up): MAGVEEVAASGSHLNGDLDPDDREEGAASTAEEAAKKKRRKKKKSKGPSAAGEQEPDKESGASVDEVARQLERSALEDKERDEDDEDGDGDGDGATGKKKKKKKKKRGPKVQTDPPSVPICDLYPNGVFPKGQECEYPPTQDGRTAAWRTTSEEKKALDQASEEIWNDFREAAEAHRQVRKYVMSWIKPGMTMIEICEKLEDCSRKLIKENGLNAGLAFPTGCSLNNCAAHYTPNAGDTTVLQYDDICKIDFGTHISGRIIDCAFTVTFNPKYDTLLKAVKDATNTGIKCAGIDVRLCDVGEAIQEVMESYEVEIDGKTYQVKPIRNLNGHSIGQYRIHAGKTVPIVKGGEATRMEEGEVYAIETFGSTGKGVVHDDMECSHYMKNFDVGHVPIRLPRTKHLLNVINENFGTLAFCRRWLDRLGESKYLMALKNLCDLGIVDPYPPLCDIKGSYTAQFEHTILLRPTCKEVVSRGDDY
row,SMILES,IC50 [nM]
1,NC(=O)c1[nH]c2cc(F)c(Cl)cc2c1-c1ccccc1,63
2,CC(C)Oc1cc(N2CCNCC2)ccc1-c1c(C(N)=O)[nH]c2cc(F)c(Cl)cc12,3.2
3,NC(=O)c1[nH]c2ccc(Cl)cc2c1-c1ccccc1,316
4,NC(=O)c1[nH]c2ccccc2c1-c1ccccc1,2510
5,NC(=O)c1[nH]c2cnccc2c1-c1ccccc1,6310
6,N#Cc1ccc(-c2c(C(N)=O)[nH]c3ccc(Cl)cc23)cc1,501
7,NC(=O)c1[nH]c2c(Cl)cccc2c1-c1ccccc1,7940
8,NC(=O)c1[nH]c2c(F)cc(Cl)cc2c1-c1ccccc1,631
9,NC(=O)c1[nH]c2ccc(F)cc2c1-c1ccccc1,631
10,CN(C)c1ccc(-c2c(C(N)=O)[nH]c3ccc(Cl)cc23)cc1,100
11,CC(C)Oc1cc(N2CCNCC2)ccc1-c1c(C(N)=O)[nH]c2cc(F)c(F)cc12,2
12,O=C(O)c1[nH]c2ccc(Cl)cc2c1-c1ccccc1,20000
13,COc1ccccc1-c1c(C(N)=O)[nH]c2ccc(Cl)cc12,100
14,CN1CCN(c2ccc(-c3c(C(N)=O)[nH]c4ccc(Cl)cc34)cc2)CC1,25
15,CC(C)Oc1ccccc1-c1c(C(N)=O)[nH]c2ccc(Cl)cc12,25

# More lines, in order of falling IC50, values ahead:
row,IC50 [nM],SMILES
1,3980,NC(=O)c1[nH]c2ccc(Cl)c(F)c2c1-c1ccccc1
2,1580,CC(=O)c1[nH]c2ccc(Cl)cc2c1-c1ccccc1
3,1260,NC(=O)c1[nH]c2ncc(Cl)cc2c1-c1ccccc1
4,1000,CN(C)Cc1ccc(-c2c(C(N)=O)[nH]c3ccc(Cl)cc23)cc1
5,398,NC(=O)c1[nH]c2ccc(Cl)cc2c1-c1ccccc1OC(F)(F)F
6,398,NC(=O)c1[nH]c2ccc(Cl)cc2c1-c1ccc(Cl)cc1
7,316,Cc1ccccc1-c1c(C(N)=O)[nH]c2ccc(Cl)cc12
8,251,NC(=O)c1[nH]c2ccc(Cl)cc2c1-c1ccc(-c2ccn[nH]2)cc1
9,251,NC(=O)c1[nH]c2ccc(Cl)cc2c1-c1ccc(C(=O)N2CCCC2)cc1
10,126,COc1ccc(-c2c(C(N)=O)[nH]c3ccc(Cl)cc23)cc1
11,50,NC(=O)c1[nH]c2ccc(Cl)cc2c1-c1ccc(N2CCOCC2)cc1
12,6.3,COc1ccccc1-c1c(C(N)=O)[nH]c2cc(F)c(Cl)cc12
13,5,CC(C)Oc1ccccc1-c1c(C(N)=O)[nH]c2cc(F)c(Cl)cc12
